Assay results taken from patent US10750743B2, “Pyridazinone herbicides” (E.I. DU PONT DE NEMOURS AND COMPANY, priority 2015, dated 2020).

What was measured:
Format in all cases: in vivo
[1] = system: ducksalad (Heteranthera limosa); test: Test B flooded paddy test, visual rating; conditions: Heteranthera limosa, 360 h; Flood, 250 g ai/ha, applied to paddy water, rated after 13 to 15 d; read-out: Ducksalad plant response rating (0 to 100 scale, 0 is no effect, 100 is complete control)
In short: (§1)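 Plants grown to the 2-leaf stage. At treatment, pots were flooded to 3 cm above the soil, compound was applied directly to the paddy water, and that depth was held throughout. After 13 to 15 d in the greenhouse, response was rated visually against controls on a 0 (no effect) to 100 (complete control) scale.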

[2] = system: rice (Oryza sativa); test: Test B flooded paddy test, visual rating; conditions: Oryza sativa, 360 h; Flood, 250 g ai/ha, applied to paddy water, rated after 13 to 15 d; read-out: Rice plant response rating (0 to 100 scale, 0 is no effect, 100 is complete control)
In short: as §1

[3] = system: barnyardgrass (Echinochloa crus-galli); test: Test B flooded paddy test, visual rating; conditions: Echinochloa crus-galli, 360 h; Flood, 250 g ai/ha, applied to paddy water, rated after 13 to 15 d; read-out: Barnyardgrass plant response rating (0 to 100 scale, 0 is no effect, 100 is complete control)
In short: as §1

[4] = system: ryegrass, It. (Italian ryegrass, Lolium multiflorum); test: Test A postemergence application, visual injury rating; conditions: Lolium multiflorum, post-emergence, 240 h, 0 to 100 scale, 0 no effect, 100 complete control, read-out: Ryegrass, It. plant response rating; for pest or weed control at 125 g/ha: 125 g ai/ha; for pest or weed control at 500 g/ha: 500 g ai/ha
In short: (§2)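 Compounds in a surfactant-containing solvent were applied as a directed soil spray preemergence, or postemergence to plants 2-10 cm tall at the one- to two-leaf stage, in loam-sand blend. After about 10 d in the greenhouse, injury was rated visually against untreated controls on a 0-100 scale (100 = complete control).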

[5] = system: ragweed (common ragweed, Ambrosia elatior); test: as above; conditions: Ambrosia artemisiifolia, post-emergence, 240 h, 0 to 100 scale, 0 no effect, 100 complete control, read-out: Ragweed plant response rating; for pest or weed control at 125 g/ha: 125 g ai/ha; for pest or weed control at 500 g/ha: 500 g ai/ha
In short: as §2

[6] = system: galium (catchweed bedstraw, Galium aparine); test: as above; conditions: Galium, post-emergence, 240 h, 0 to 100 scale, 0 no effect, 100 complete control, read-out: Galium plant response rating; for pest or weed control at 125 g/ha: 125 g ai/ha; for pest or weed control at 500 g/ha: 500 g ai/ha
In short: as §2

[7] = system: blackgrass (Alopecurus myosuroides); test: as above; conditions: Alopecurus myosuroides, post-emergence, 240 h, 0 to 100 scale, 0 no effect, 100 complete control, read-out: Blackgrass plant response rating; for pest or weed control at 125 g/ha: 125 g ai/ha; for pest or weed control at 500 g/ha: 500 g ai/ha
In short: as §2

[8] = system: kochia (Kochia scoparia); test: as above; conditions: Bassia scoparia, post-emergence, 240 h, 0 to 100 scale, 0 no effect, 100 complete control, read-out: Kochia plant response rating; for pest or weed control at 125 g/ha: 125 g ai/ha; for pest or weed control at 500 g/ha: 500 g ai/ha
In short: as §2

[9] = system: barnyardgrass (Echinochloa crus-galli); test: as above; conditions: Echinochloa crus-galli, post-emergence, 240 h, 0 to 100 scale, 0 no effect, 100 complete control, read-out: Barnyardgrass plant response rating; for pest or weed control at 125 g/ha: 125 g ai/ha; for pest or weed control at 500 g/ha: 500 g ai/ha
In short: as §2

[10] = system: foxtail, giant (giant foxtail, Setaria faberii); test: as above; conditions: Setaria faberi, post-emergence, 240 h, 0 to 100 scale, 0 no effect, 100 complete control, read-out: Foxtail, Giant plant response rating; for pest or weed control at 125 g/ha: 125 g ai/ha; for pest or weed control at 500 g/ha: 500 g ai/ha
In short: as §2

[11] = system: wheat (Triticum aestivum); test: as above; conditions: Triticum aestivum, post-emergence, 240 h, 0 to 100 scale, 0 no effect, 100 complete control, read-out: Wheat plant response rating; for plant injury at 125 g/ha: 125 g ai/ha; for plant injury at 500 g/ha: 500 g ai/ha
In short: as §2

[12] = system: corn (Zea mays); test: as above; conditions: Zea mays, post-emergence, 240 h, 0 to 100 scale, 0 no effect, 100 complete control, read-out: Corn plant response rating; for plant injury at 125 g/ha: 125 g ai/ha; for plant injury at 500 g/ha: 500 g ai/ha
In short: as §2

[13] = system: pigweed (Amaranthus retroflexus); test: as above; conditions: Amaranthus retroflexus, post-emergence, 240 h, 0 to 100 scale, 0 no effect, 100 complete control, read-out: Pigweed plant response rating; for pest or weed control at 125 g/ha: 125 g ai/ha; for pest or weed control at 500 g/ha: 500 g ai/ha
In short: as §2

[14] = system: ryegrass, It. (Italian ryegrass, Lolium multiflorum); test: Test A preemergence, directed soil spray, visual injury rating; conditions: Lolium multiflorum, pre-emergence, 240 h, 0 is no effect, 100 is complete control, read-out: Plant response rating (0 to 100 scale), Ryegrass, It.; for pest or weed control at 125 g/ha: 125 g ai/ha; for pest or weed control at 500 g/ha: 500 g ai/ha
In short: as §2

[15] = system: ragweed (common ragweed, Ambrosia elatior); test: as above; conditions: Ambrosia artemisiifolia, pre-emergence, 240 h, 0 is no effect, 100 is complete control, read-out: Plant response rating (0 to 100 scale), Ragweed; for pest or weed control at 125 g/ha: 125 g ai/ha; for pest or weed control at 500 g/ha: 500 g ai/ha
In short: as §2

[16] = system: kochia (Kochia scoparia); test: as above; conditions: Bassia scoparia, pre-emergence, 240 h, 0 is no effect, 100 is complete control, read-out: Plant response rating (0 to 100 scale), Kochia; for pest or weed control at 125 g/ha: 125 g ai/ha; for pest or weed control at 500 g/ha: 500 g ai/ha
In short: as §2

[17] = system: barnyardgrass (Echinochloa crus-galli); test: as above; conditions: Echinochloa crus-galli, pre-emergence, 240 h, 0 is no effect, 100 is complete control, read-out: Plant response rating (0 to 100 scale), Barnyardgrass; for pest or weed control at 125 g/ha: 125 g ai/ha; for pest or weed control at 500 g/ha: 500 g ai/ha
In short: as §2

[18] = system: foxtail, giant (giant foxtail, Setaria faberii); test: as above; conditions: Setaria faberi, pre-emergence, 240 h, 0 is no effect, 100 is complete control, read-out: Plant response rating (0 to 100 scale), Foxtail, Giant; for pest or weed control at 125 g/ha: 125 g ai/ha; for pest or weed control at 500 g/ha: 500 g ai/ha
In short: as §2

[19] = system: pigweed (Amaranthus retroflexus); test: as above; conditions: Amaranthus retroflexus, pre-emergence, 240 h, 0 is no effect, 100 is complete control, read-out: Plant response rating (0 to 100 scale), Pigweed; for pest or weed control at 125 g/ha: 125 g ai/ha; for pest or weed control at 500 g/ha: 500 g ai/ha
In short: as §2

With `Cc1nn(C)c(=O)c(-c2cccc3snc(C)c23)c1O` [Compound 25, 5-hydroxy-2,6-dimethyl-4-(3-methyl-1,2-benzisothiazol-4-yl)-3 (2H)-pyridazinone] the pest or weed control at 250 g/ha [1] was 0%, the plant injury at 250 g/ha [2] was 0% and the pest or weed control at 250 g/ha [3] was 0%. For the same compound, the pest or weed control at 125 g/ha [4] was 20%, the pest or weed control at 500 g/ha [4] was 70% and the pest or weed control at 125 g/ha [5] was 70%. For the same compound, the pest or weed control at 500 g/ha [5] was 90%, the pest or weed control at 125 g/ha [6] was 80% and the pest or weed control at 500 g/ha [6] was 90%. The pest or weed control at 125 g/ha [7] was 20%, the pest or weed control at 500 g/ha [7] was 30% and the pest or weed control at 125 g/ha [8] was 100%. The pest or weed control at 500 g/ha [8] was 100%, the pest or weed control at 125 g/ha [9] was 20% and the pest or weed control at 500 g/ha [9] was 40%. The pest or weed control at 125 g/ha [10] was 30%, the pest or weed control at 500 g/ha [10] was 80% and the plant injury at 125 g/ha [11] was 20%. The plant injury at 500 g/ha [11] was 30%, the plant injury at 125 g/ha [12] was 0% and the plant injury at 500 g/ha [12] was 20%. It also gave a pest or weed control at 125 g/ha [13] of 90%, a pest or weed control at 500 g/ha [13] of 90% and a pest or weed control at 125 g/ha [14] of 0%. It also gave a pest or weed control at 500 g/ha [14] of 30%, a pest or weed control at 125 g/ha [15] of 40% and a pest or weed control at 500 g/ha [15] of 70%. It also gave a pest or weed control at 125 g/ha [16] of 100%, a pest or weed control at 500 g/ha [16] of 100% and a pest or weed control at 125 g/ha [17] of 0%. It also gave a pest or weed control at 500 g/ha [17] of 40%, a pest or weed control at 125 g/ha [18] of 30% and a pest or weed control at 500 g/ha [18] of 80%. It also gave a pest or weed control at 125 g/ha [19] of 80% and a pest or weed control at 500 g/ha [19] of 100%.

Work on `CC(=O)Oc1c(C)nn(C)c(=O)c1-c1c(C)ccc2cc(C)oc12` [Compound 11, 5-(acetyloxy)-4-(2,6-dimethyl-7-benzofuranyl)-2,6-dimethyl-3(2H)-pyridazinone] yielded a pest or weed control at 250 g/ha [1] of 0%, a plant injury at 250 g/ha [2] of 0% and a pest or weed control at 250 g/ha [3] of 0%. The pest or weed control at 125 g/ha [4] was 100%, the pest or weed control at 500 g/ha [4] was 100% and the pest or weed control at 125 g/ha [5] was 100%. For the same compound, the pest or weed control at 500 g/ha [5] was 100%, the pest or weed control at 125 g/ha [6] was 90% and the pest or weed control at 500 g/ha [6] was 90%. It also gave a pest or weed control at 125 g/ha [7] of 60%, a pest or weed control at 500 g/ha [7] of 90% and a pest or weed control at 125 g/ha [8] of 100%. For the same compound, the pest or weed control at 500 g/ha [8] was 100%, the pest or weed control at 125 g/ha [9] was 30% and the pest or weed control at 500 g/ha [9] was 60%. It also gave a pest or weed control at 125 g/ha [10] of 60%, a pest or weed control at 500 g/ha [10] of 80% and a plant injury at 125 g/ha [11] of 0%. The plant injury at 500 g/ha [11] was 40%, the plant injury at 125 g/ha [12] was 0% and the plant injury at 500 g/ha [12] was 30%. For the same compound, the pest or weed control at 125 g/ha [13] was 90%, the pest or weed control at 500 g/ha [13] was 100% and the pest or weed control at 125 g/ha [14] was 100%. For the same compound, the pest or weed control at 500 g/ha [14] was 100%, the pest or weed control at 125 g/ha [15] was 90% and the pest or weed control at 500 g/ha [15] was 100%. The pest or weed control at 125 g/ha [16] was 90%, the pest or weed control at 500 g/ha [16] was 100% and the pest or weed control at 125 g/ha [17] was 50%. It also gave a pest or weed control at 500 g/ha [17] of 100%, a pest or weed control at 125 g/ha [18] of 50% and a pest or weed control at 500 g/ha [18] of 100%. It also gave a pest or weed control at 125 g/ha [19] of 100% and a pest or weed control at 500 g/ha [19] of 100%.
